# Results: patent US5932555A (priority 1997, dated 1999)
# Like-named read-outs stand apart in the source and are kept apart here.
# What was measured:
# [1] = test system: adriamycin-resistant P388; assay: Cytotoxicity test on adriamycin-resistant P388 (P388/ADR) (MTT, 72 h); format: cell-based; conditions: Mus musculus, P388, 72 h, read-out: IC50 (growth inhibition)
# Protocol: (§1) Cultured tumor cell lines P388 and P388/ADR were suspended in RPMI1640 medium containing 10% heat inactivated fetal calf serum (FCS) and 20 μM 2-mercaptoethanol whereby a cell suspension (5×10^4 cells/ml) was prepared.
# A sample examined was dissolved in methanol, then diluted with RPMI 1640 medium and subjected to serial 2-fold dilution starting at the concentration of 0.1 mg/ml. 180 μl of the cell suspension and 20 μl of the sample solution were added into a 96-well micro-titer plate and incubated at 37° C. in wet 5% CO2 gas/95% air. 72 hours thereafter, cell growth was measured by a calorimetric assay method using 3-(4,5-dimethyl-2-thiazolyl)-2,5-diphenyl-2H-tetrazolium bromide (MTT) as follows: 20 μl of 2 mg/ml MTT solution was added to each well and the cells were incubated for 4 hours at 37° C. Thereafter, 50 μl of 50% dimethylformamide solution containing 20% sodium dodecyl sulfate was added to each well and allowed to stand, so that the formed violet formazan crystal was dissolved, and its absorbance at 570 nm was measured in a microplate absorbance photometer (Immunoreader) and used as an indicator of the growth. The result was expressed in terms of the concentration of a sample at which growth was inhibited by 50% (IC50), which was determined from the relationship between sample concentrations and degrees of inhibition calculated using the following equation (1):
# (§2) Degree of inhibition=[1-(absorbance in presence of sample)/(absorbance in
# (§3) absence of sample)]×100 (1)
# [2] = Repeated administration toxicity test (intraperitoneal); format: in vivo, mouse (CDF1); conditions: mouse, in vivo, ip, read-out: Fatality rate
# Protocol: (§4) As the comparative control, test solutions of adriamycin were prepared in the same manner. […] The number with time of survived animals after administration and the average body weights on Days 0, 5, and 10 were determined.
# CDF1 mice = assay: as above; format: in vivo, mouse (CDF1); conditions: for Body weight, Day 0: Day 0 (baseline); for Number of survived animals, Day 4 / Number of survived animals, Day 5 / Number of survived animals, Day 6 / Number of survived animals, Day 7 / Number of survived animals, Day 8 / Number of survived animals, Day 10: of 10
# Protocol: as §4
# P388 [3] = assay: Mouse in vivo antitumor test, P388 transplanted
# Protocol: (§5) 2×10^5 cells of P388 or P388/ADR were inoculated intraperitoneally into each of CDF1 mice (male, each weighing 20 g, 10 animals/group), and from the next day, the test solution was administered at 10, 5, and 1 mg/kg body weight/day respectively by intraperitoneal injection of 200 μl sample at each concentration once a day for 10 successive days. The numbers with time of mice which survived after administration was counted and the average survival days and T/C (survival days of treated mice/survival days of control mice) were calculated. The average body weights after 10 days were also measured.
# P388/ADR = assay: Mouse in vivo antitumor test, P388/ADR transplanted
# Protocol: as §5
# P388 [4] = assay: Cytotoxicity test on cultured tumor cell line P388 (MTT, 72 h); format: cell-based; conditions: Mus musculus, P388, 72 h, read-out: IC50 (growth inhibition)
# Protocol: as §1
# 72 hours thereafter, cell growth was measured by a calorimetric assay method using 3-(4,5-dimethyl-2-thiazolyl)-2,5-diphenyl-2H-tetrazolium bromide (MTT) as follows: 20 μl of 2 mg/ml MTT solution was added to each well and the cells were incubated for 4 hours at 37° C. Thereafter, 50 μl of 50% dimethylformamide solution containing 20% sodium dodecyl sulfate was added to each well and allowed to stand, so that the formed violet formazan crystal was dissolved, and its absorbance at 570 nm was measured in a microplate absorbance photometer (Immunoreader) and used as an indicator of the growth.
# as §2, §3
# [5] = test system: rejection of the transplant; conditions: as an immunosuppressive agent, prior art; cited from earlier work
# [6] = prior art, depending on case; cited from earlier work
# [7] = P388, 1 mg/kg/day i.p. × 10 days
# [8] = P388, 5 mg/kg/day i.p. × 10 days
# [9] = P388, 10 mg/kg/day i.p. × 10 days
# [10] = P388/ADR, 1 mg/kg/day i.p. × 10 days
# [11] = P388/ADR, 5 mg/kg/day i.p. × 10 days
# [12] = P388/ADR, 10 mg/kg/day i.p. × 10 days
smiles,measurement,setting,value
COc1cccc2c1C(=O)c1c(O)c3c(c(O)c1C2=O)C[C@@](O)(C(=O)CO)C[C@@H]3O[C@H]1C[C@H](N)[C@H](O)[C@H](C)O1 [Adriamycin],IC50,[1],0.53 µg/mL
same,mortality,[2]; 1 mg/kg/day i.p. × 10 days,0%
same,mortality,[2]; 5 mg/kg/day i.p. × 10 days,70%
same,mortality,[2]; 10 mg/kg/day i.p. × 10 days,100%
same,"Body weight, Day 0",CDF1 mice; 1 mg/kg/day i.p. group,21.9 g
same,"Number of survived animals, Day 4",CDF1 mice; 1 mg/kg/day i.p. × 10 days,10
same,"Number of survived animals, Day 5",CDF1 mice; 1 mg/kg/day i.p. × 10 days,10
same,"Number of survived animals, Day 6",CDF1 mice; 1 mg/kg/day i.p. × 10 days,10
same,"Number of survived animals, Day 7",CDF1 mice; 1 mg/kg/day i.p. × 10 days,10
same,"Number of survived animals, Day 8",CDF1 mice; 1 mg/kg/day i.p. × 10 days,10
same,"Number of survived animals, Day 10",CDF1 mice; 1 mg/kg/day i.p. × 10 days,10
same,"Body weight, Day 5",CDF1 mice; 1 mg/kg/day i.p.,23.5 g
same,"Body weight, Day 10",CDF1 mice; 1 mg/kg/day i.p.,24.5 g
same,"Body weight, Day 0",CDF1 mice; 5 mg/kg/day i.p. group,21.6 g
same,"Number of survived animals, Day 4",CDF1 mice; 5 mg/kg/day i.p. × 10 days,10
same,"Number of survived animals, Day 5",CDF1 mice; 5 mg/kg/day i.p. × 10 days,9
same,"Number of survived animals, Day 6",CDF1 mice; 5 mg/kg/day i.p. × 10 days,9
same,"Number of survived animals, Day 7",CDF1 mice; 5 mg/kg/day i.p. × 10 days,8
same,"Number of survived animals, Day 8",CDF1 mice; 5 mg/kg/day i.p. × 10 days,3
same,"Number of survived animals, Day 10",CDF1 mice; 5 mg/kg/day i.p. × 10 days,3
same,"Body weight, Day 5",CDF1 mice; 5 mg/kg/day i.p.,21.0 g
same,"Body weight, Day 10",CDF1 mice; 5 mg/kg/day i.p.,15.8 g
same,"Body weight, Day 0",CDF1 mice; 10 mg/kg/day i.p. group,21.8 g
same,"Number of survived animals, Day 4",CDF1 mice; 10 mg/kg/day i.p. × 10 days,10
same,"Number of survived animals, Day 5",CDF1 mice; 10 mg/kg/day i.p. × 10 days,9
same,"Number of survived animals, Day 6",CDF1 mice; 10 mg/kg/day i.p. × 10 days,8
same,"Number of survived animals, Day 7",CDF1 mice; 10 mg/kg/day i.p. × 10 days,3
same,"Number of survived animals, Day 8",CDF1 mice; 10 mg/kg/day i.p. × 10 days,0
same,"Number of survived animals, Day 10",CDF1 mice; 10 mg/kg/day i.p. × 10 days,0
same,"Body weight, Day 5",CDF1 mice; 10 mg/kg/day i.p.,17.7 g
same,survival in repeated administration,"CDF1 mice; i.p. 10 days, in words",some animals in the group given adriamycin died
same,growth / body weight in repeated administration,"CDF1 mice; i.p. 10 days, in words, vs control",growth was inferior to the control
same,T/C,P388 [3]; [7],120%
same,average survival days,P388 [3]; [7],12.4 days
same,T/C,P388 [3]; [8],81%
same,average survival days,P388 [3]; [8],8.4 days
same,T/C,P388 [3]; [9],76%
same,average survival days,P388 [3]; [9],7.8 days
same,therapeutic effect (improvement in survival rate),"P388 [3]; P388-transplanted mice, adriamycin 1 mg/kg/day vs 0406TP-1",same degree of therapeutic effect
same,therapeutic effect at high dosage,"P388 [3]; more than 5 mg/kg body weight/day, due to its toxicity",did not show therapeutic effect
same,T/C,P388/ADR; [10],96%
same,average body weight after 10 days,P388/ADR; [10],23.5 g
same,average survival days,P388/ADR; [10],10.7 days
same,T/C,P388/ADR; [11],63%
same,average survival days,P388/ADR; [11],7.0 days
same,T/C,P388/ADR; [12],68%
same,average survival days,P388/ADR; [12],7.5 days
same,therapeutic effect,P388/ADR; P388/ADR-transplanted mice,did not show therapeutic effect
same,IC50,P388 [4],0.027 µg/mL
C=CC[C@@H]1/C=C(\C)C[C@H](C)C[C@H](OC)[C@H]2O[C@@](O)(C(=O)C(=O)N3CCCC[C@H]3C(=O)O[C@H](/C(C)=C/[C@@H]3CC[C@@H](O)[C@H](OC)C3)[C@H](C)[C@@H](O)CC1=O)[C@H](C)C[C@@H]2OC [tacrorims (FK506)],immunosuppressive results,[5],preferable results
same,side effects,[6],obstacles to the pancreas and kidney
